Data on 81 molecules can be found in patent US20190110476A1, “NOVEL ISOTHIAZOLAMIDES, PROCESSES FOR THEIR PREPARATION AND THEIR USE AS FUNGICIDES” (priority 2014, published 2019).

Marks after values point to notes of the source that are not given here.

This data set is described as follows: Measurement of LogP values by HPLC on reversed phase columns (EEC directive 79/831 Annex V.A8). In kind it is physicochemical. The method in brief: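 Following EEC directive 79/831 Annex V.A8, lipophilicity was derived from retention on reversed-phase HPLC columns. Separate values are given per diastereoisomer, and UV lambda-max (200–400 nm) was read at the peak signals.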
For `COc1ccc(CNc2nsc(C(=O)N(Cc3c(C)cccc3C)C3CC3)c2Cl)cc1` [I-891], the LogP was 4.82[a].

As for `COc1ccc(CNc2nsc(C(=O)N(Cc3ccc(C)cc3C)C3CC3)c2Cl)cc1` [I-892], the LogP was 4.80[a].

`COc1ccc(CNc2nsc(C(=O)N(C3CCCCC3)C3CC3)c2Cl)cc1` [I-893]: the LogP was 4.67[a].

As for `CCC(C)C(C)N(C(=O)c1snc(NCc2ccc(OC)cc2)c1Cl)C1CC1` (stereo not drawn) [I-894], the LogP was 4.85[a].

In the case of `Nc1nsc(C(=O)NCCc2ccccc2Cl)c1Cl` [I-895], the LogP is 2.41[a].

For the molecule `COc1ccc(CNc2nsc(C(=O)N(Cc3ccccc3)C3CC3)c2Cl)cc1` [I-897], the LogP was 4.14[a].

On to `CCc1cccc(C)c1CN(C(=O)c1snc(NCc2ccc(OC)cc2)c1Cl)C1CC1` [I-898], for which the LogP is 5.17[a].

As for `CCCC(c1ccccc1)N(C(=O)c1snc(NCc2ccc(OC)cc2)c1Cl)C1CC1` (stereo not drawn) [I-899], the LogP is 5.25[a].

For `COc1ccc(CNc2nsc(C(=O)N(CC(C)C)C3CC3)c2Cl)cc1` [I-900], the LogP is 4.09[a].

On to `CCC(C)C(C)N(C(=O)c1snc(N)c1Cl)C1CC1` (stereo not drawn) [I-901], for which the LogP was 3.00[a].

With `CC(C)CN(C(=O)c1snc(N)c1Cl)C1CC1` [I-902], the LogP is 2.25[a].

As for `O=C(Nc1ccc(Cl)cc1Cl)c1cc(N(Cc2ccccc2)Cc2ccccc2)ns1` [I-903], the LogP was 5.74[a].

As for `O=C(NCCc1ncc(C(F)(F)F)cc1Cl)c1cc(N(Cc2ccccc2)Cc2ccccc2)ns1` [I-904], the LogP was 5.03[a].

For the molecule `N#Cc1ccccc1NC(=O)c1cc(N(Cc2ccccc2)Cc2ccccc2)ns1` [I-905], the LogP was 4.26[a].

Turning to `Cc1ccc(NC(=O)c2cc(N(Cc3ccccc3)Cc3ccccc3)ns2)cc1Cl` [I-906], the LogP is 5.68[a].

With `Cc1cc(C)c(CN(C(=O)c2cc(N(Cc3ccccc3)Cc3ccccc3)ns2)C2CC2)c(C)c1` [I-907], the LogP was 6.25[a].

For the molecule `CCCC(c1ccccc1)N(C(=O)c1snc(N)c1Cl)C1CC1` (stereo not drawn) [I-908], the LogP is 3.48[a].

For `Nc1cc(C(=O)N(Cc2c(F)cccc2Cl)C2CC2)sn1` [I-909], the LogP is 2.28[a].

In the case of `O=C(c1cc(N(Cc2ccccc2)Cc2ccccc2)ns1)N(Cc1ccccc1)C1CC1` [I-910], the LogP was 5.36[a].

Consider `O=C(c1cc(N(Cc2ccccc2)Cc2ccccc2)ns1)N(Cc1c(F)cccc1Cl)C1CC1` [I-911], for which the LogP was 5.54[a].

With `CC(c1cc(Cl)cc(Cl)c1)N(C(=O)c1cc(N(Cc2ccccc2)Cc2ccccc2)ns1)C1CC1` (stereo not drawn) [I-912], the LogP is 6.54[a].

For `Nc1nsc(C(=S)NCC2CCCCC2)c1Cl` [I-913], the LogP was 3.37[a].

Take `Cc1ccccc1NC(=O)c1snc(N)c1Cl` [I-914]: the LogP is 2.08[a].

In the case of `Cc1cccc(NC(=O)c2snc(N)c2Cl)c1` [I-915], the LogP was 2.28[a].

As to `Cc1ccc(NC(=O)c2snc(N)c2Cl)cc1` [I-916], the LogP is 2.27[a].

For the molecule `Nc1nsc(C(=O)N(c2ccc(F)cc2)C2CC2)c1Cl` [I-917], the LogP was 2.21[a].

With `COc1ccc(CNc2nsc(C(=O)N(c3cc(F)cc(F)c3)C3CC3)c2Cl)cc1` [I-918], the LogP is 4.10[a].

As to `Nc1cc(C(=O)NCCc2ncc(C(F)(F)F)cc2Cl)sn1` [I-919], the LogP is 2.01[a].

Consider `Cc1ccc(NC(=O)c2cc(N)ns2)cc1Cl` [I-920], for which the LogP is 2.35[a].

Regarding `COc1ccc(CNc2nsc(C(=O)N(c3ccc(F)cc3F)C3CC3)c2Cl)cc1` [I-921], the LogP was 4.02[a].

With `COc1ccc(CNc2nsc(C(=O)N(c3ccc(F)cc3)C3CC3)c2Cl)cc1` [I-922], the LogP was 3.85[a].

For `Cc1ccc(NC(=O)c2snc(N)c2Cl)c(C)c1` [I-923], the LogP is 2.44[a].

Regarding `Cc1cccc(C)c1NC(=O)c1snc(N)c1Cl` [I-924], the LogP is 2.05[a].

In the case of `Cc1cccc(NC(=O)c2snc(N)c2Cl)c1C` [I-925], the LogP was 2.27[a].

Turning to `Nc1nsc(C(=O)Nc2cccc3c2CCC3)c1Cl` [I-926], the LogP was 2.75[a].

For the molecule `Nc1nsc(C(=O)Nc2cccc3ccccc23)c1Cl` [I-927], the LogP is 2.39[a].

Regarding `COc1ccc(CNc2nsc(C(=O)N(C3CC3)C(C)c3cc(Cl)cc(Cl)c3)c2Cl)cc1` (stereo not drawn) [I-928], the LogP was 5.36[a].

On to `COc1ccc(CNc2nsc(C(=O)N(Cc3c(Cl)cccc3Cl)C3CC3)c2Cl)cc1` [I-929], for which the LogP is 4.80[a].

As for `COc1ccc(CNc2nsc(C(=O)N(Cc3ccc(Cl)cc3Cl)C3CC3)c2Cl)cc1` [I-930], the LogP was 5.08[a].

For the molecule `COc1ccc(CNc2nsc(C(=O)N(C3CC3)C(C)c3ccc(Cl)cc3Cl)c2Cl)cc1` (stereo not drawn) [I-931], the LogP was 5.22[a].

In the case of `CCC(c1ccc(Cl)cc1Cl)N(C(=O)c1snc(NCc2ccc(OC)cc2)c1Cl)C1CC1` (stereo not drawn) [I-932], the LogP was 5.62[a].

With `COc1ccc(CNc2nsc(C(=O)N(Cc3c(F)cccc3Cl)C3CC3)c2Cl)cc1` [I-933], the LogP is 4.44[a].

As to `COc1ccc(CNc2nsc(C(=O)N(Cc3ccc(Cl)cc3Cl)C3CCC3)c2Cl)cc1` [I-934], the LogP is 5.56[a].

`COc1ccc(CNc2nsc(C(=O)N(Cc3ccc(Cl)cc3Cl)CC3CC3)c2Cl)cc1` [I-935]: the LogP was 5.45[a].

`CCC(c1cc(Cl)cc(Cl)c1)N(C(=O)c1snc(NCc2ccc(OC)cc2)c1Cl)C1CC1` (stereo not drawn) [I-936]: the LogP was 5.81[a].

For the molecule `CC(C)N(Cc1ccc(Cl)cc1Cl)C(=O)c1cc(N)ns1` [I-937], the LogP is 3.08[a].

For `CCC(C)C(C)N(C(=O)c1cc(N(Cc2ccccc2)Cc2ccccc2)ns1)C1CC1` (stereo not drawn) [I-938], the LogP is 5.97[a].

As to `O=C(c1cc(N(Cc2ccccc2)Cc2ccccc2)ns1)N(Cc1c(Cl)cccc1Cl)C1CC1` [I-939], the LogP was 5.90[a].

For `O=C(c1cc(N(Cc2ccccc2)Cc2ccccc2)ns1)N(Cc1ccc(Cl)cc1Cl)C1CC1` [I-940], the LogP was 6.30[a].

Consider `CC(C)N(Cc1ccc(Cl)cc1Cl)C(=O)c1cc(N(Cc2ccccc2)Cc2ccccc2)ns1` [I-941], for which the LogP is 6.48[a].

Consider `CC1(C)CC1N(Cc1ccc(Cl)cc1Cl)C(=O)c1cc(N(Cc2ccccc2)Cc2ccccc2)ns1` (stereo not drawn) [I-942], for which the LogP is 6.79[a].

With `O=C(c1cc(N(Cc2ccccc2)Cc2ccccc2)ns1)N(Cc1cc(Cl)cc(C(F)(F)F)c1)C1CC1` [I-943], the LogP was 6.16[a].

Consider `COc1ccc(CNc2nsc(C(=O)N(Cc3ccc(Cl)cc3Cl)C(C)C)c2Cl)cc1` [I-944], for which the LogP is 5.39[a].

`COc1ccc(CNc2nsc(C(=O)N(Cc3ccc(Cl)cc3Cl)C3CC3(C)C)c2Cl)cc1` (stereo not drawn) [I-945]: the LogP is 5.87[a].

In the case of `COc1ccc(CNc2nsc(C(=O)N(Cc3c(Cl)cccc3C(F)(F)F)C3CC3)c2Cl)cc1` [I-946], the LogP is 4.91[a].

In the case of `COc1ccc(CNc2nsc(C(=O)N(Cc3cc(Cl)cc(C(F)(F)F)c3)C3CC3)c2Cl)cc1` [I-947], the LogP was 5.11[a].

For the molecule `COc1ccc(CNc2nsc(C(=O)N(C3CC3)C(C)c3cccc(C(F)(F)F)c3)c2Cl)cc1` (stereo not drawn) [I-948], the LogP was 4.91[a].

For the molecule `COc1ccc(CNc2nsc(C(=O)N(C3CC3)C(C)c3ccccc3C(F)(F)F)c2Cl)cc1` (stereo not drawn) [I-949], the LogP was 4.83[a].

For `O=C(NCCc1ncc(C(F)(F)F)cc1Cl)c1snc(N(Cc2ccccc2)Cc2ccccc2)c1Br` [I-950], the LogP was 5.97[a].

On to `Cc1ccc(NC(=O)c2snc(N(Cc3ccccc3)Cc3ccccc3)c2Br)cc1Cl` [I-951], for which the LogP is 6.35[a].

Regarding `CC(c1cc(Cl)cc(Cl)c1)N(C(=O)c1snc(N)c1Cl)C1CC1` (stereo not drawn) [I-952], the LogP is 3.70[a].

As to `CC(c1ccc(Cl)cc1Cl)N(C(=O)c1snc(N)c1Cl)C1CC1` (stereo not drawn) [I-953], the LogP is 3.50[a].

In the case of `CCC(c1ccc(Cl)cc1Cl)N(C(=O)c1snc(N)c1Cl)C1CC1` (stereo not drawn) [I-954], the LogP is 3.90[a].

For `CCC(c1cc(Cl)cc(Cl)c1)N(C(=O)c1snc(N)c1Cl)C1CC1` (stereo not drawn) [I-955], the LogP is 4.17[a].

For `CC(c1cccc(C(F)(F)F)c1)N(C(=O)c1snc(N)c1Cl)C1CC1` (stereo not drawn) [I-956], the LogP was 3.29[a].

With `CC(c1ccccc1C(F)(F)F)N(C(=O)c1snc(N)c1Cl)C1CC1` (stereo not drawn) [I-957], the LogP is 3.13[a].

For the molecule `Nc1nsc(C(=O)N(c2ccc(F)cc2F)C2CC2)c1Cl` [I-958], the LogP was 2.39[a].

Take `Nc1nsc(C(=O)N(c2cc(F)cc(F)c2)C2CC2)c1Cl` [I-959]: the LogP is 2.48[a].

As for `O=C(Nc1ccc(Cl)cc1Cl)c1snc(N(Cc2ccccc2)Cc2ccccc2)c1Br` [I-960], the LogP was 7.15[a].

Regarding `COc1ccc(CNc2nsc(C(=O)NCCc3ccc(F)cc3)c2Cl)cc1` [I-961], the LogP was 3.72[a].

Take `COc1ccc(CNc2nsc(C(=O)NCCc3ccc(Cl)cc3)c2Cl)cc1` [I-962]: the LogP was 4.08[a].

Take `COc1ccc(CNc2nsc(C(=O)NCCc3ccccc3F)c2Cl)cc1` [I-963]: the LogP is 3.74[a].

With `Nc1nsc(C(=O)NCCc2ncc(C(F)(F)F)cc2Cl)c1Br` [I-964], the LogP is 2.55[a].

Regarding `Cc1ccc(NC(=O)c2snc(N)c2Br)cc1Cl` [I-965], the LogP is 2.88[a].

As to `Nc1nsc(C(=O)NCCc2ccc(F)cc2)c1Cl` [I-966], the LogP is 2.13[a].

For the molecule `Nc1cc(C(=O)N(Cc2ccc(Cl)cc2Cl)C2CC2)sn1` [I-967], the LogP was 2.90[a].

With `Nc1cc(C(=O)N(Cc2c(Cl)cccc2Cl)C2CC2)sn1` [I-968], the LogP was 2.53[a].

With `CC1(C)CC1N(Cc1ccc(Cl)cc1Cl)C(=O)c1cc(N)ns1` (stereo not drawn) [I-969], the LogP is 3.48[a].

As for `Nc1cc(C(=O)N(Cc2cc(Cl)cc(C(F)(F)F)c2)C2CC2)sn1` [I-970], the LogP was 3.11[a].

Regarding `Nc1nsc(C(=O)NCCc2ccc(Cl)cc2)c1Cl` [I-971], the LogP was 2.46[a].

In the case of `Nc1nsc(C(=O)NCCc2ccccc2F)c1Cl` [I-972], the LogP is 2.11[a].
